# Measured values reported in article PMC8909834, “An Orally Bioavailable and Highly Efficacious Inhibitor of CDK9/FLT3 for the Treatment of Acute Myeloid Leukemia” (Cancers, 2022).
# What was measured:
# Assay in all cases: Kinase Hotspot radiolabel assay
# Format in all cases: biochemical
# Settings in all cases: read-out: % Residual Activity
# PKCepsilon = molecular target: T1, PKCepsilon (Homo sapiens, UniProt Q02156)
# T1 construct: purchased Reaction Biology Corporation (Kinase HotSpot)
# Outline: (§1)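 Inhibition measured by a radiolabel Hotspot kinase assay as part of a 369-kinase specificity panel, with the compound at 1 µM. Kinases inhibited by more than 90% went on to Ki determination.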
# BMPR2 = molecular target: T2, BMPR2 (Homo sapiens, UniProt Q13873)
# T2 construct: purchased Reaction Biology Corporation (Kinase HotSpot)
# Outline: as §1
# RIPK4 = molecular target: T3, RIPK4 (Homo sapiens, UniProt P57078)
# T3 construct: purchased Reaction Biology Corporation (Kinase HotSpot)
# Outline: as §1
# FMS = molecular target: T4, FMS (Homo sapiens, UniProt P07333)
# T4 construct: purchased Reaction Biology Corporation (Kinase HotSpot)
# Outline: as §1
# ERN2/IRE2 = molecular target: T5, ERN2/IRE2 (Homo sapiens, UniProt Q76MJ5)
# T5 construct: purchased Reaction Biology Corporation (Kinase HotSpot)
# Outline: as §1
# TAOK3/JIK = molecular target: T6, TAOK3/JIK (Homo sapiens, UniProt Q9H2K8)
# T6 construct: purchased Reaction Biology Corporation (Kinase HotSpot)
# Outline: as §1
# PKCb1 = molecular target: T7, PKCb1 (Homo sapiens, UniProt P05771)
# T7 construct: purchased Reaction Biology Corporation (Kinase HotSpot)
# Outline: as §1
# PBK/TOPK = molecular target: T8, PBK/TOPK (Homo sapiens, UniProt Q96KB5)
# T8 construct: purchased Reaction Biology Corporation (Kinase HotSpot)
# Outline: as §1
# ALK3/BMPR1A = molecular target: T9, ALK3/BMPR1A (Homo sapiens, UniProt P36894)
# T9 construct: purchased Reaction Biology Corporation (Kinase HotSpot)
# Outline: as §1
# TSSK3/STK22C = molecular target: T10, TSSK3/STK22C (Homo sapiens, UniProt Q96PN8)
# T10 construct: purchased Reaction Biology Corporation (Kinase HotSpot)
# Outline: as §1
# BTK = molecular target: T11, BTK (Homo sapiens, UniProt Q06187)
# T11 construct: purchased Reaction Biology Corporation (Kinase HotSpot)
# T11 sequence (Q06187 whole entry): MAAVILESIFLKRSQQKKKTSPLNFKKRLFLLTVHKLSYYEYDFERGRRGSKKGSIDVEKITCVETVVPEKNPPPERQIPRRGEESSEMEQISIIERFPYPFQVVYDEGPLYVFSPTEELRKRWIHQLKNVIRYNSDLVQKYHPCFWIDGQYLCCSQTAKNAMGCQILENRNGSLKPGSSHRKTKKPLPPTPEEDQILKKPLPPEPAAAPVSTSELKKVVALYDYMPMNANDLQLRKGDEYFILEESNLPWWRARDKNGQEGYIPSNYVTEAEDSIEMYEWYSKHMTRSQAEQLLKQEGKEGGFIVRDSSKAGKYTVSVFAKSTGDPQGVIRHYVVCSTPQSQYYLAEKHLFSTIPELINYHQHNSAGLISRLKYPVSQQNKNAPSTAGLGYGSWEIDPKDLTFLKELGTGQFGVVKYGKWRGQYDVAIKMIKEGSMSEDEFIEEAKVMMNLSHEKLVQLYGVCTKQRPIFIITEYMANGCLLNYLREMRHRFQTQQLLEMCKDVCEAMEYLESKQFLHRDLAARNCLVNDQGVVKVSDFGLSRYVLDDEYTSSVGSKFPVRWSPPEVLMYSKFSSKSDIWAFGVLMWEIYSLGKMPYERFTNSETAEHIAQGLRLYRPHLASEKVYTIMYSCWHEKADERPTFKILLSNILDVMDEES
# Outline: as §1
# PKCzeta = molecular target: T12, PKCzeta (Homo sapiens, UniProt Q05513)
# T12 construct: purchased Reaction Biology Corporation (Kinase HotSpot)
# Outline: as §1
# TSSK2 = molecular target: T13, TSSK2 (Homo sapiens, UniProt Q96PF2)
# T13 construct: purchased Reaction Biology Corporation (Kinase HotSpot)
# Outline: as §1
# CDK14/cyclin Y (PFTK1) = molecular target: T14, CDK14/cyclin Y (PFTK1) (Homo sapiens, UniProt O94921)
# T14 construct: purchased Reaction Biology Corporation (Kinase HotSpot)
# Outline: as §1
# TBK1 = molecular target: T15, TBK1 (Homo sapiens, UniProt Q9UHD2)
# T15 construct: purchased Reaction Biology Corporation (Kinase HotSpot)
# Outline: as §1
# MAK = molecular target: T16, MAK (Homo sapiens, UniProt P20794)
# T16 construct: purchased Reaction Biology Corporation (Kinase HotSpot)
# Outline: as §1
# CDK2/Cyclin A1 = molecular target: T17, CDK2/Cyclin A1 (Homo sapiens, UniProt P24941)
# T17 construct: purchased Reaction Biology Corporation (Kinase HotSpot)
# Outline: as §1
# MLK2/MAP3K10 = molecular target: T18, MLK2/MAP3K10 (Homo sapiens, UniProt Q02779)
# T18 construct: purchased Reaction Biology Corporation (Kinase HotSpot)
# Outline: as §1
# EPHA4 = molecular target: T19, EPHA4 (Homo sapiens, UniProt P54764)
# T19 construct: purchased Reaction Biology Corporation (Kinase HotSpot)
# Outline: as §1
# CK1epsilon = molecular target: T20, CK1epsilon (Homo sapiens, UniProt P49674)
# T20 construct: purchased Reaction Biology Corporation (Kinase HotSpot)
# Outline: as §1
# HIPK2 = molecular target: T21, HIPK2 (Homo sapiens, UniProt Q9H2X6)
# T21 construct: purchased Reaction Biology Corporation (Kinase HotSpot)
# Outline: as §1
# CDK2/cyclin A = molecular target: T22, CDK2/cyclin A (Homo sapiens, UniProt P24941)
# T22 construct: purchased Reaction Biology Corporation (Kinase HotSpot)
# Outline: as §1
# PHKg1 = molecular target: T23, PHKg1 (Homo sapiens, UniProt Q16816)
# T23 construct: purchased Reaction Biology Corporation (Kinase HotSpot)
# Outline: as §1
# PIM2 = molecular target: T24, PIM2 (Homo sapiens, UniProt Q9P1W9)
# T24 construct: purchased Reaction Biology Corporation (Kinase HotSpot)
# T24 sequence (Q9P1W9 whole entry): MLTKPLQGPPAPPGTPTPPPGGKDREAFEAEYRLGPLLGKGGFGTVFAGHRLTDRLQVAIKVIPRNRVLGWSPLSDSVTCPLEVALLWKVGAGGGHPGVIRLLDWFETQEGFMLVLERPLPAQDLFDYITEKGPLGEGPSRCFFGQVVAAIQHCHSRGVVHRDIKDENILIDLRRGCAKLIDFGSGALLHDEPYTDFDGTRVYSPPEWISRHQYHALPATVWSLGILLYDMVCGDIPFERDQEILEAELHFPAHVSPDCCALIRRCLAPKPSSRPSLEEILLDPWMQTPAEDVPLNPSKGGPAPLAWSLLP
# Outline: as §1
# WEE1 = molecular target: T25, WEE1 (Homo sapiens, UniProt P30291)
# T25 construct: purchased Reaction Biology Corporation (Kinase HotSpot)
# Outline: as §1
# MINK/MINK1 = molecular target: T26, MINK/MINK1 (Homo sapiens, UniProt Q8N4C8)
# T26 construct: purchased Reaction Biology Corporation (Kinase HotSpot)
# Outline: as §1
# RAF1 = molecular target: T27, RAF1 (Homo sapiens, UniProt P04049)
# T27 construct: purchased Reaction Biology Corporation (Kinase HotSpot)
# Outline: as §1
# STK21/CIT = molecular target: T28, STK21/CIT (Homo sapiens, UniProt O14578)
# T28 construct: purchased Reaction Biology Corporation (Kinase HotSpot)
# T28 sequence (O14578 whole entry): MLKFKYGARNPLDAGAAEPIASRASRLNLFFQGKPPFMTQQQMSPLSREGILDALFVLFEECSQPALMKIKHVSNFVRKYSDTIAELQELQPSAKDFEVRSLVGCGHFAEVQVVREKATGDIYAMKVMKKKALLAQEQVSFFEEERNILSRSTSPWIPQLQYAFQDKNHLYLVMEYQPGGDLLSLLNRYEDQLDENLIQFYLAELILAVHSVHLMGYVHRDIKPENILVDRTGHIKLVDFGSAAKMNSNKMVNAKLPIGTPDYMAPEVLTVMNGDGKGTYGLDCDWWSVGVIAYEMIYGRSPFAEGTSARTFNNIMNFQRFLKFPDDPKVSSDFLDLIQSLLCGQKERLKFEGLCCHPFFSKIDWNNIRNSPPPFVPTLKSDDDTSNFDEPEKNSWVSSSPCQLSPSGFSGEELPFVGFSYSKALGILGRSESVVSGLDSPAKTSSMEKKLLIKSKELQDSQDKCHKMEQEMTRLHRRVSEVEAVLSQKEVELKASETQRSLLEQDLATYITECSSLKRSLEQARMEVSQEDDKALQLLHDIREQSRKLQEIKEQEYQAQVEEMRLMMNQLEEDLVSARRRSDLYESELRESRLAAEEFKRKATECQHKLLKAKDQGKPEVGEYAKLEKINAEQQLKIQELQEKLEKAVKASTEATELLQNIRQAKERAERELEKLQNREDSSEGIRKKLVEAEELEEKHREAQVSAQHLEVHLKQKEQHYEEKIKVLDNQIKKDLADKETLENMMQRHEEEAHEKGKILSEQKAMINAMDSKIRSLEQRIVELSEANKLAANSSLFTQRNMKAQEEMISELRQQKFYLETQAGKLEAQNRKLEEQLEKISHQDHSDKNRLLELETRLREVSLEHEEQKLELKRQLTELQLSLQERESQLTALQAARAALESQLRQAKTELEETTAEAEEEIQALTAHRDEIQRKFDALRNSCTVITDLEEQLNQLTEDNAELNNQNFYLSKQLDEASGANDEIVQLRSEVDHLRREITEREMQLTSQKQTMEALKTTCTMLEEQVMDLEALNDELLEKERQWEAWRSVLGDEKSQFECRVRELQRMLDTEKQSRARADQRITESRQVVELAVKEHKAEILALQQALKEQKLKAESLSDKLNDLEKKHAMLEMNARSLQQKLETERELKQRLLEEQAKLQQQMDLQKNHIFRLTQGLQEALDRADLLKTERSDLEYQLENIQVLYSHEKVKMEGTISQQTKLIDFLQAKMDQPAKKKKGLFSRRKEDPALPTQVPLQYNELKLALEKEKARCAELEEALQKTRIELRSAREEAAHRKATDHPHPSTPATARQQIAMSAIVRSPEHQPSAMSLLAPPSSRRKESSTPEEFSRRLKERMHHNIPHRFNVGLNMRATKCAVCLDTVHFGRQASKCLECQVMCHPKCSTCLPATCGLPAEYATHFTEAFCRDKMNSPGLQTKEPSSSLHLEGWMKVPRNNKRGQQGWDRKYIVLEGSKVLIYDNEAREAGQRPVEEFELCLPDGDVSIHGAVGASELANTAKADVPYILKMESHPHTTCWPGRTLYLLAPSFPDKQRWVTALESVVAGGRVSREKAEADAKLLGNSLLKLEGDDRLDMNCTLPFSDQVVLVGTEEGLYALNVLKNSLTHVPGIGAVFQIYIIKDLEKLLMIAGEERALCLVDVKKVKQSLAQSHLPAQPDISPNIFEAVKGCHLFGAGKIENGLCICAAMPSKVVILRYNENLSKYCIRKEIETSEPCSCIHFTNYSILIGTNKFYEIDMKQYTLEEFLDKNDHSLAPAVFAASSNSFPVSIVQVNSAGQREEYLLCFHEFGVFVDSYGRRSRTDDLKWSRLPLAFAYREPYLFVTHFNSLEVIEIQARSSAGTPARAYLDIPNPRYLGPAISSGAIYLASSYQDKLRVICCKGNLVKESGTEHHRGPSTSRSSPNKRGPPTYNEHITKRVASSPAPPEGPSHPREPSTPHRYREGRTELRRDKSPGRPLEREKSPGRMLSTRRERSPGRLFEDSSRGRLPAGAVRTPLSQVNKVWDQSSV
# Outline: as §1
# DAPK1 = molecular target: T29, DAPK1 (Homo sapiens, UniProt P53355)
# T29 construct: purchased Reaction Biology Corporation (Kinase HotSpot)
# Outline: as §1
# TNIK = molecular target: T30, TNIK (Homo sapiens, UniProt Q9UKE5)
# T30 construct: purchased Reaction Biology Corporation (Kinase HotSpot)
# T30 sequence (Q9UKE5 whole entry): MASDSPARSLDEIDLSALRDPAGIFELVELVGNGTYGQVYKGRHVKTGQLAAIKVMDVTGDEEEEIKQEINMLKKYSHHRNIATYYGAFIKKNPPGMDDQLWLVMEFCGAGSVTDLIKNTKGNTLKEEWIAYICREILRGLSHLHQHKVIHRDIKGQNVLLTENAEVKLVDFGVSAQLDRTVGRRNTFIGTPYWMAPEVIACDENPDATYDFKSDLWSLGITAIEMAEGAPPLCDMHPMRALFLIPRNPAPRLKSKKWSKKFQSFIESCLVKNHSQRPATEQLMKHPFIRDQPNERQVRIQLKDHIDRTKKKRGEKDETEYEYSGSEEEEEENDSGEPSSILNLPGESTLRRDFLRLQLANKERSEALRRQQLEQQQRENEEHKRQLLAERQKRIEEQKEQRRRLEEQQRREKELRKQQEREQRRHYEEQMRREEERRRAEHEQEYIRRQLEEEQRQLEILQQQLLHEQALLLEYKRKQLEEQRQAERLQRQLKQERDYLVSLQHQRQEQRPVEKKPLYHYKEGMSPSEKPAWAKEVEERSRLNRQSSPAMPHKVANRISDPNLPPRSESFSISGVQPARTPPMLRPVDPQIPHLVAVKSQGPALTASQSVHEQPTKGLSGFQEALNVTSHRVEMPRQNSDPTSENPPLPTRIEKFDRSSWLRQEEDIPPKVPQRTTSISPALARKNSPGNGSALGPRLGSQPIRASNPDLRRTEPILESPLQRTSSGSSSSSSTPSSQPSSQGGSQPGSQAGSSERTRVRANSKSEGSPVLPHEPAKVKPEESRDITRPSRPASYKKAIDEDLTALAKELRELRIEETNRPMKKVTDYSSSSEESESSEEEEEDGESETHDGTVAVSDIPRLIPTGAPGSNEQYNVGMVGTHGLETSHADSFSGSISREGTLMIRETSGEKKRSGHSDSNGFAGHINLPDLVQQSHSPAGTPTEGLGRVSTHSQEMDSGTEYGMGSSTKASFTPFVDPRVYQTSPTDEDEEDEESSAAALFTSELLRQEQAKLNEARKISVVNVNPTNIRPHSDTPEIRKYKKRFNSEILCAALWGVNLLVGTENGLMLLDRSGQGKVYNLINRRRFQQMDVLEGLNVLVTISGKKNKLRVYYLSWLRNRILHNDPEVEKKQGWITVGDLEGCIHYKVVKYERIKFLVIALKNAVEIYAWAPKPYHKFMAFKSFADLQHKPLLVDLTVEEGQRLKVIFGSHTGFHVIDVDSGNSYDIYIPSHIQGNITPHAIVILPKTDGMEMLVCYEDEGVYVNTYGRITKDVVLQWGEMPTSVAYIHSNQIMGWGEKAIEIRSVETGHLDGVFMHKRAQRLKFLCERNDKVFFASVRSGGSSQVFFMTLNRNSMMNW
# Outline: as §1
# T1 sequence (Q02156 whole entry): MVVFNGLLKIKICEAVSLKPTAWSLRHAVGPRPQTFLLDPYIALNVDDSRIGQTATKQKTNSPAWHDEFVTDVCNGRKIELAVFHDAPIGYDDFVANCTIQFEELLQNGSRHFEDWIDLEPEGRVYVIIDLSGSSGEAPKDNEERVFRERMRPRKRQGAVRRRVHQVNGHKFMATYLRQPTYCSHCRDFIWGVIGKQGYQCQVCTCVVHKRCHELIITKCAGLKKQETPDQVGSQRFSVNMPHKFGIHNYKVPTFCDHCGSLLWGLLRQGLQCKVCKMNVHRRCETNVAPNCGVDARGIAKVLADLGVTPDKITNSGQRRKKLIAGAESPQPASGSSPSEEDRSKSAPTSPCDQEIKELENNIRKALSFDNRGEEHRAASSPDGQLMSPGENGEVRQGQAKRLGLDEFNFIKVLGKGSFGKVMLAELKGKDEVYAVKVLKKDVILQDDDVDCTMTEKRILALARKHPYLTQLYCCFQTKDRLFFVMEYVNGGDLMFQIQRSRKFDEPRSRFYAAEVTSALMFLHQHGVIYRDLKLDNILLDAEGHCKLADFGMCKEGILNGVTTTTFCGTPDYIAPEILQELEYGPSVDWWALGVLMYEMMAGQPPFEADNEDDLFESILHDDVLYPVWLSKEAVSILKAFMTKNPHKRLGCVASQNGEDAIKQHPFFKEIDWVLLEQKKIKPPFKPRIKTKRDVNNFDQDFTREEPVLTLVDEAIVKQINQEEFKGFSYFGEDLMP
smiles,measurement,setting,value
Cc1cnc(N[C@H]2CC[C@H](N)CC2)nc1-c1cnc2ccc(-c3ccccc3)cn12 [CDDD11-8],remaining activity at 1 µM,PKCepsilon,54.7%
same,remaining activity at 1 µM,BMPR2,90.2%
same,remaining activity at 1 µM,RIPK4,72.6%
same,remaining activity at 1 µM,FMS,73%
same,remaining activity at 1 µM,ERN2/IRE2,45.4%
same,remaining activity at 1 µM,TAOK3/JIK,48.6%
same,remaining activity at 1 µM,PKCb1,87.4%
same,remaining activity at 1 µM,PBK/TOPK,102%
same,remaining activity at 1 µM,ALK3/BMPR1A,98%
same,remaining activity at 1 µM,TSSK3/STK22C,98.3%
same,remaining activity at 1 µM,BTK,87%
same,remaining activity at 1 µM,PKCzeta,89.2%
same,remaining activity at 1 µM,TSSK2,93.8%
same,remaining activity at 1 µM,CDK14/cyclin Y (PFTK1),68.8%
same,remaining activity at 1 µM,TBK1,94.6%
same,remaining activity at 1 µM,MAK,67.6%
same,remaining activity at 1 µM,CDK2/Cyclin A1,55.7%
same,remaining activity at 1 µM,MLK2/MAP3K10,76.5%
same,remaining activity at 1 µM,EPHA4,101%
same,remaining activity at 1 µM,CK1epsilon,37.1%
same,remaining activity at 1 µM,HIPK2,104%
same,remaining activity at 1 µM,CDK2/cyclin A,55%
same,remaining activity at 1 µM,PHKg1,59.2%
same,remaining activity at 1 µM,PIM2,94.5%
same,remaining activity at 1 µM,WEE1,94.3%
same,remaining activity at 1 µM,MINK/MINK1,8.86%
same,remaining activity at 1 µM,RAF1,98.1%
same,remaining activity at 1 µM,STK21/CIT,85.9%
same,remaining activity at 1 µM,DAPK1,96.1%
same,remaining activity at 1 µM,TNIK,4.38%
